Assay results from patent US20250296971A1, “GASTRIC INHIBITORY PEPTIDE RECEPTOR LIGANDS” (priority 2021, published 2025).
Where two headings read alike, the source gives them in different places. *1 amine or outer side, *2 acyl side, *3 side chain or, on linkers, in order; H or OH if unused. Where a SMILES comes first, the peptide text is derived from it. Bridges are numbered along the chain shown (N, C = ends). [ ]: non-standard residue; d: D form. The star is where a group is joined. DOTA(In) = O=C1CN2CCN3CCN(CC(=O)*)CCN(CC2)CC(=O)[O][In]([O]1)[O]C(=O)C3; DOTA(Lu) = O=C1CN2CCN3CCN(CC(=O)*)CCN(CC2)CC(=O)[O][Lu]([O]1)[O]C(=O)C3; X3 = O=C(O)CN1CCN(CC(=O)O)CCN(CC(=O)NCCCOCCOCCOCCCN*)CCN(CC(=O)O)CC1; NH(1-deoxy-D-glucityl) = OC[C@@H](O)[C@@H](O)[C@H](O)[C@@H](O)CN*; Pro(trans-4-NH2) = O=C([C@@H]1C[C@@H](N[*:3])CN1[*:1])[*:2]; DOTA = O=C(O)CN1CCN(CC(=O)O)CCN(CC(=O)*)CCN(CC(=O)O)CC1; Trp(5-Cl) = N[C@@H](Cc1c[nH]c2ccc(Cl)cc12)C(=O)O; Pyridine(2,6-diCH2) = c1cc(C[*:1])nc(C[*:2])c1; Pro(4R-NH2) = N[C@H]1CN[C@H](C(=O)O)C1; Glutaryl = O=C(CCCC(=O)[*:2])[*:1]; X6 = c1cc(CSCCN[*:2])nc(C[*:1])c1; Hyp = O=C(O)[C@@H]1C[C@@H](O)CN1; X1 = O=C(CN1CCC(N[*:1])CC1)[*:2]; Suc = O=C(CCC(=O)[*:2])[*:1]; Api = NC1(C(=O)O)CCNCC1; Thp = NC1(C(=O)O)CCOCC1

Legend:
[1] = target: T1, GIPR (CHO-K1-hGIPR cells) (Homo sapiens, UniProt P48546); assay: FACS binding assay; settings: competition with 20 nM GIP-057, 4° C., 1 hour
T1 construct: host or cells: CHO-K1
T1 sequence (P48546 22-466): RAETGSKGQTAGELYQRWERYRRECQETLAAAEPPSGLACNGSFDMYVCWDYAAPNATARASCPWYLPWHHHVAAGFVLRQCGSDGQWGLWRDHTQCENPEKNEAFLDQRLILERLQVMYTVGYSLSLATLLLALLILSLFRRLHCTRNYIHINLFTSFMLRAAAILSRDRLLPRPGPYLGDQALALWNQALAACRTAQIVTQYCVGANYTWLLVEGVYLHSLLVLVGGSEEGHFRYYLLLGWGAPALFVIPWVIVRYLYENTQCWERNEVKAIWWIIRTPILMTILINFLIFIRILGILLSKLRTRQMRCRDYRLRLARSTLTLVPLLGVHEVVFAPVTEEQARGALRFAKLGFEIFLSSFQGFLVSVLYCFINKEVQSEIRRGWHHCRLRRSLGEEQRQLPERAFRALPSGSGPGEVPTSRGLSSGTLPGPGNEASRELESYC
Summary of the method: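 CHO-K1 cells expressing human GIPR, washed in PBS/1% FCS, then stained with 1 μg/mL APC-streptavidin for 30 min on ice.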

[2] = target: T2, human GIP receptor (bioGIPR) (Homo sapiens, UniProt P48546); assay: Surface plasmon resonance (SPR) based binding assay; settings: for t1/2 Category: SPR dissociation half-life
T2 construct: Biotinylate extracellular of the human GIP receptor (bioGIPR, Proteros biostructures GmbH, lot #02/2b); purchased Proteros biostructures GmbH lot #02/2b
T2 sequence (P48546 22-138 limits assumed): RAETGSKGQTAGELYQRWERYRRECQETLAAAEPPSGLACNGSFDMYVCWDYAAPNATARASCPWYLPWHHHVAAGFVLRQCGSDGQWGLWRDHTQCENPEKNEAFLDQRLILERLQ
Description: Surface plasmon resonance (SPR) studies were performed using a Biacore™ T200 SPR system. Briefly, polarized light is directed towards a gold-labeled sensor surface, and minimum intensity reflected light is detected. The angle of reflected light changes as molecules bind and dissociate.
Biotinylate extracellular of the human GIP receptor (bioGIPR, Proteros biostructures GmbH, lot #02/2b) was captured on a biotin capture chip (Biotin CAPture Kit, Series S, GE Healthcare, Cat #28-9202-34). bioGIPR was diluted in Running Buffer (HBST from Xantec Analytics; […], 0.05% Tween20, 0.1% DMSO) to a final concentration 100 nM and than flushed over the Fc-capture chip to immobilized ˜3500 RUs.
Stock solutions of test compounds were prepared by dissolving each compound in DMSO. DMSO stock solution were diluted 1:1000 in Running Buffer without DMSO. Further sequential dilutions were made with Running Buffer containing 0.1% DMSO. SPR binding analyses were performed in Single Cycle Kinetic (SCK) mode at 25° C. Flow cell without immobilized bioGIPR served as reference flowcell. After each SCK run, bioGIRP and the Biotin Capture Reagent was removed with Regeneration Solution (6 M Guanidium, 0.75 M NaOH).
In between every three SCK measurements, a blank run with Running Buffer instead of test compound was included to correct for baseline drifts (double blanking method).
For each test compound, SPR raw data in the form of resonance units (RU) were plotted as sensorgrams using the Biacore™ T200 control software. The signal from the blank sensorgram was subtracted from that of the test compound sensorgram (blank corrected). The blank corrected sensorgram was corrected for baseline drift by subtracting the sensorgram of a SCK run without the test compound (running buffer only). The association rate (kon), dissociation rate (koff), dissociation constant (KD), and t1/2 were calculated from blank corrected SPR data using the 1:1 Langmuir binding model from the Biacore™ T200 evaluation software. Raw data and fit results were imported as text files in IDBS. The pKD value (negative decadic logarithm of dissociation constant) was calculated in the IDBS excel template.

[3] = read-out: pIC50 Category (converted)
[4] = SPR, Single Cycle Kinetic mode, 25° C., 1:1 Langmuir binding model, read-out: pKD Category (converted)
[5] = Single Cycle Kinetic mode, 25° C.

| Structure (SMILES) | IC50 [1, 3] [nM] | Kd [2, 4] [nM] | t1/2 Category [2, 5] | IC50 ([1]; pIC50 Category) [nM] | Kd [2] [nM] |
| --- | --- | --- | --- | --- | --- |
| CC[C@H](C)[C@@H]1NC(=O)[C@H](CC(C)C)NC(=O)C2(CCOCC2)NC(=O)[C@@H](NC(=O)[C@@H](CC(C)C)NC(=O)[C@H](CCC(=O)O)NC(=O)[C@@H]2C[C@@H](O)CN2C(=O)[C@H](Cc2c[nH]c3ccc(Cl)cc23)NC(=O)[C@H](Cc2c[nH]c3ccccc23)NC(=O)[C@H](CC(=O)O)NC(=O)CN2CCC(NC(=O)CN3CCN4CCN5CCN(CC3)CC(=O)[O][In]([O]C(=O)C4)[O]C(=O)C5)CC2)CSCc2cccc(n2)CSCCNC1=O [GIP-155, InDOTA-APAc-Asp-Trp-5Clw-Hyp-Glu-leu-[Cys(2Lut)-Thp-Leu-Ile-AET]] ({DOTA(In)}-[X1]DW[Trp(5-Cl)][Hyp]E[dL]C[Thp]LI; linker 8-C via X6) | < 10 | < 1 |  |  |  |
| CC[C@H](C)[C@@H]1NC(=O)[C@H](CC(C)C)NC(=O)C2(CCOCC2)NC(=O)[C@@H](NC(=O)[C@@H](CC(C)C)NC(=O)[C@H](CCC(=O)O)NC(=O)[C@@H]2C[C@@H](NC(=O)CN3CCN(CC(=O)O)CCN(CC(=O)O)CCN(CC(=O)O)CC3)CN2C(=O)[C@H](Cc2c[nH]c3ccc(Cl)cc23)NC(=O)[C@H](Cc2c[nH]c3ccccc23)NC(=O)[C@H](CC(=O)O)NC(C)=O)CSCc2cccc(n2)CSC[C@@H](C(N)=O)NC1=O [GIP-121, Ac-Asp-Trp-5Clw-Tap(DOTA)-Glu-leu-[Cys(2Lut)-Thp-Leu-Ile-Cys]-NH2] (Ac-DW[Trp(5-Cl)][Pro(trans-4-NH2)](DOTA)E[dL]C[Thp]LIC-NH2; linker 7-11 via Pyridine(2,6-diCH2)) | < 10 | < 1 | A (t1/2 values>15 min) |  |  |
| CC[C@H](C)[C@@H]1NC(=O)[C@H](CC(C)C)NC(=O)C2(CCN(C(=O)CN3CCN4CCN5CCN(CC3)CC(=O)[O][Lu]([O]C(=O)C5)[O]C(=O)C4)CC2)NC(=O)[C@@H](NC(=O)[C@@H](CC(C)C)NC(=O)[C@H](CCC(=O)O)NC(=O)[C@@H]2C[C@@H](N)CN2C(=O)[C@H](Cc2c[nH]c3ccc(Cl)cc23)NC(=O)[C@H](Cc2c[nH]c3ccccc23)NC(=O)[C@H](CC(=O)O)NC(=O)CCCC(=O)NC[C@H](O)[C@@H](O)[C@H](O)[C@H](O)CO)CSCc2cccc(n2)CSC[C@@H](C(=O)NC2CCN(CC(=O)N[C@H](CCC(=O)NC[C@H](O)[C@@H](O)[C@H](O)[C@H](O)CO)C(N)=O)CC2)NC1=O [GIP-066, Lutetium-Complex of AGLU-Glutar-Asp-Trp-5Clw-Hyp-Glu-leu-[Cys(2Lut)-Apc(DOTA)-Leu-Ile-Cys]-APAc-glu(AGLU)-NH2] ({NH(1-deoxy-D-glucityl)-Glutaryl}-DW[Trp(5-Cl)][Pro(4R-NH2)]E[dL]C[Api](DOTA(Lu))LIC[X1][dE](NH(1-deoxy-D-glucityl))-NH2; linker 7-11 via Pyridine(2,6-diCH2)) |  |  | A (t1/2 values>15 min) | < 10 | < 1 |
| CC[C@H](C)[C@@H]1NC(=O)[C@H](CC(C)C)NC(=O)C2(CCNCC2)NC(=O)[C@@H](NC(=O)[C@@H](CC(C)C)NC(=O)[C@H](CCC(=O)O)NC(=O)[C@@H]2CCCN2C(=O)[C@H](Cc2c[nH]c3ccc(Cl)cc23)NC(=O)[C@H](Cc2c[nH]c3ccccc23)NC(=O)[C@H](CC(=O)O)NC(=O)CCC(=O)NCCCOCCOCCOCCCNC(=O)CN2CCN(CC(=O)O)CCN(CC(=O)O)CCN(CC(=O)O)CC2)CSCc2cccc(n2)CSCCNC1=O [GIP-119, DOTA-Ttds-Asp-Trp-5Clw-Pro-Glu-leu-[Cys(2Lut)-Apc-Leu-Ile-AET]] ({X3-Suc}-DW[Trp(5-Cl)]PE[dL]C[Api]LI; linker 7-C via X6) | < 10 | < 1 | A (t1/2 values>15 min) |  |  |
